Data: article PMC8418037, “Immunomodulatory effect of standardized C. asiatica extract on a promotion of regulatory T cells in rats” (BMC Complementary Medicine and Therapies, 2021)

Assays:
[1] = system: multidrug-resistant protein 2; parameters: method as in PMID 24091240; conditions: affecting the level of absorbed compound; cited from earlier work
[2] = rat, in vivo
Method: Rats, weighing more than 400 g, were put in metabolic cages and fasted overnight with free access to water before experiments. […] The intravenous preparations were freshly dissolved in 20% DMSO/NSS for injection. The oral preparations were freshly prepared by suspending the test compound in 0.5% CMC. To reduce pain and injury during drug administration and blood collection, rats were anesthetized with 5% isoflurane by chamber induction. Serial blood samples (300 μL) were collected at 0, 5, 15, and 30 min, and at 1, 2, 4, 8, and 24 h after dosing. Blood samples were centrifuged at 5000 g for 10 min, and plasma was collected and stored at − 20 °C until analysis. Determination of aspartate transaminase (AST), alanine transaminase (ALT), and creatinine levels were performed at pre-dosing, and at 0 h and 24 h after dosing. Creatinine level was determined by enzymatic Roche Cobas 6000 analyzer. In this enzymatic method creatinine is converted to creatine under the activity of creatininase. Creatine is then acted upon by creatinase to form sarcosine and urea. Sarcosine oxidase converts sarcosine to glycine and hydrogen peroxide, and the hydrogen peroxide reacts with chromophore in the presence of peroxidase to produce a color product that is measured at 546 nm (secondary wavelength = 700 nm). This is an endpoint reaction that agrees well with recognized HPLC methods, and it has the advantage over Jaffe picric acid-based methods that are susceptible to interferences from non-creatinine chromogens. For tissue collection, the rats was euthanized with isoflurane after oral dosing the test compound at 100 mg/kg for 7 days. After the dead was confirmed, spleen and blood were immediately collected, washed with normal saline solution, and send to immunology laboratory for further experiments. The control group received oral gavage of 0.5% CMC as vehicle control. All animal procedures were complied with the ethical principles and guidelines for the use of animals (National Research Council of Thailand, 2015).
All pharmacokinetic parameters were computed by non-compartmental analysis using PK Solution 2.0 software (Summit Research Service, USA). […] The absolute oral bioavailability was calculated as (AUCp.o. ÷ dose p.o.) ÷ (AUCi.v. ÷ dose i.v.). Pharmacokinetic data are presented as mean ± standard deviation. Blood chemical parameters were analyzed by Mann–Whitney U-test to compare the significance of differences between pre-dosing and 24 h post-dosing, with a p-value of less than 0.05. All statistical analyses were calculated using SPSS version 16 (SPSS, Inc., USA). […] The data were analyzed with an unpaired Student’s t-test. A p-value of < 0.05 was considered statistically significant.

P-glycoprotein = system: P-glycoprotein; parameters: method as in PMID 24091240; conditions: affecting the level of absorbed compound; cited from earlier work

## C[C@H]1[C@H](C)CC[C@]2(C(=O)O[C@@H]3O[C@H](CO[C@@H]4O[C@H](CO)[C@@H](O[C@@H]5O[C@@H](C)[C@H](O)[C@@H](O)[C@H]5O)[C@H](O)[C@H]4O)[C@@H](O)[C@H](O)[C@H]3O)CC[C@]3(C)C(=CC[C@@H]4[C@@]5(C)C[C@@H](O)[C@H](O)[C@@](C)(CO)[C@@H]5[C@H](O)C[C@]43C)[C@H]12 [Madecassoside, madecassoside]
[1]
  Substrate for multidrug-resistant protein 2: substrate
[2]
  ALT, Post-dose (24 h): 24.00 ± 4.85 U/L
  ALT, Pre-dose (0 h): 23.80 ± 2.59 U/L
  AST, Post-dose (24 h): 63.20 ± 16.81 U/L
  AST, Pre-dose (0 h): 46.20 ± 4.87 U/L
  Creatinine, Post-dose (24 h): 0.67 ± 0.05 mg/dL
  Creatinine, Pre-dose (0 h): 0.64 ± 0.04 mg/dL
  Physical appearance, Post-dose (24 h): Normal
  Physical appearance, Pre-dose (0 h): Normal
P-glycoprotein
  Substrate for P-glycoprotein: substrate
